Test results reported in the supplement of paper PMC10307832.

What was measured:
Experiment in all cases: relative viability (nuclei count vs DMSO), 5 days (fraction); higher = more cells survive
Venetoclax + Alpelisib = compound: CC1(C)CCC(CN2CCN(c3ccc(C(=O)NS(=O)(=O)c4ccc(NCC5CCOCC5)c([N+](=O)[O-])c4)c(Oc4cnc5[nH]ccc5c4)c3)CC2)=C(c2ccc(Cl)cc2)C1 [Venetoclax] + Cc1nc(NC(=O)N2CCC[C@H]2C(N)=O)sc1-c1ccnc(C(C)(C)C(F)(F)F)c1 [Alpelisib] (partner 2 µM)
Method in brief: (§1)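 A single step with final 0.05% Triton X-100, 1% formaldehyde and 1 ug/ml Hoechst fixed the cells and stained nuclei 5 days after treatment. Lung cancer cell lines in 1536-well plates had been treated by pin tool the day after seeding with one drug alone or a fixed anchor-drug dose plus five library-drug doses (not always all listed) in √10 steps, and nuclei were counted on 4× images. Relative viability is the ratio of nuclei in treated wells to nuclei in vehicle wells, taken as the median of duplicate plates.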

[1] = compound: Cn1cnc2c(F)c(Nc3ccc(Br)cc3Cl)c(C(=O)NOCCO)cc21 [Selumetinib] + CC(=O)c1c(C)c2cnc(Nc3ccc(N4CCNCC4)cn3)nc2n(C2CCCC2)c1=O [Palbociclib] (partner 0.5 µM)
Method in brief: as §1

Selumetinib + Navitoclax = compound: Cn1cnc2c(F)c(Nc3ccc(Br)cc3Cl)c(C(=O)NOCCO)cc21 [Selumetinib] + CC1(C)CCC(c2ccc(Cl)cc2)=C(CN2CCN(c3ccc(C(=O)NS(=O)(=O)c4ccc(N[C@H](CCN5CCOCC5)CSc5ccccc5)c(S(=O)(=O)C(F)(F)F)c4)cc3)CC2)C1 [Navitoclax] (partner 0.5 µM)
Method in brief: as §1

Selumetinib + Linsitinib = compound: Cn1cnc2c(F)c(Nc3ccc(Br)cc3Cl)c(C(=O)NOCCO)cc21 [Selumetinib] + C[C@]1(O)C[C@@H](c2nc(-c3ccc4ccc(-c5ccccc5)nc4c3)c3c(N)nccn32)C1 [Linsitinib] (partner 1 µM)
Method in brief: as §1

UMC-11
relative viability (Venetoclax + Alpelisib; first compound 0.01 µM): 0.924 | relative viability (Venetoclax + Alpelisib; first compound 0.03162 µM): 1.05 | relative viability (Venetoclax + Alpelisib; first compound 0.1 µM): 0.926 | relative viability (Venetoclax + Alpelisib; first compound 0.3162 µM): 0.923 | relative viability (Venetoclax + Alpelisib; first compound 1 µM): 0.915 | relative viability ([1]; first compound 0.02 µM): 0.309 | relative viability ([1]; first compound 0.06325 µM): 0.37 | relative viability ([1]; first compound 0.2 µM): 0.306 | relative viability ([1]; first compound 0.6325 µM): 0.34 | relative viability (Selumetinib + Navitoclax; first compound 0.02 µM): 0.273 | relative viability (Selumetinib + Navitoclax; first compound 0.06325 µM): 0.311 | relative viability (Selumetinib + Navitoclax; first compound 0.2 µM): 0.3 | relative viability (Selumetinib + Navitoclax; first compound 0.6325 µM): 0.314 | relative viability (Selumetinib + Linsitinib; first compound 0.02 µM): 0.965 | relative viability (Selumetinib + Linsitinib; first compound 0.06325 µM): 1.08 | relative viability (Selumetinib + Linsitinib; first compound 0.2 µM): 0.972 | relative viability (Selumetinib + Linsitinib; first compound 0.6325 µM): 0.984
